Laboratory results as given in patent publication US5223485A, “Anaphylatoxin-receptor ligands” (Abbott Laboratories, priority 1991, dated 1993).
Numbered stars: 1 amine (or outer) side, 2 acyl side, 3 side chain; on linkers, the order of the positions; unused ones are H or OH. Square brackets hold non-standard residues; d marks the D form. Peptide text beside a SMILES is read from it. * marks the point of attachment. X1 = O=C([C@@H](N[*:1])C(O)c1ccccc1)[*:2]; X2 = C[C@H](CN[C@@H](CCCNC(=N)N)C(=O)O)N*; NMe2Phe = CN(C)[C@@H](Cc1ccccc1)C(=O)*; 2Nal = N[C@@H](Cc1ccc2ccccc2c1)C(=O)O; Cha = N[C@@H](CC1CCCCC1)C(=O)O; NMeA = CN[C@@H](C)C(=O)O; dNMeA = CN[C@H](C)C(=O)O; Boc = CC(C)(C)OC(=O)*; Ethyl(2-NH2) = NCC*

These compounds were tested against T1, C5a Receptor (Homo sapiens, UniProt P21730) (assay: Anaphylatoxin receptor binding Ki determination: inhibition of 125I-C5a binding to PMNL membrane fragments). Details: 0.03-1 nM 125I-C5a, 2.5-25 μg/mL purified PMNL membrane fragments, filtration; read-out: In vitro C5a Receptor Binding Potency Ki.
T1 construct: 2.5-25 μg/mL of purified PMNL membrane fragments; from tissue; host or cells: polymorphonuclear leukocyte (PMNL) membrane fragments
T1 sequence (P21730 1-350): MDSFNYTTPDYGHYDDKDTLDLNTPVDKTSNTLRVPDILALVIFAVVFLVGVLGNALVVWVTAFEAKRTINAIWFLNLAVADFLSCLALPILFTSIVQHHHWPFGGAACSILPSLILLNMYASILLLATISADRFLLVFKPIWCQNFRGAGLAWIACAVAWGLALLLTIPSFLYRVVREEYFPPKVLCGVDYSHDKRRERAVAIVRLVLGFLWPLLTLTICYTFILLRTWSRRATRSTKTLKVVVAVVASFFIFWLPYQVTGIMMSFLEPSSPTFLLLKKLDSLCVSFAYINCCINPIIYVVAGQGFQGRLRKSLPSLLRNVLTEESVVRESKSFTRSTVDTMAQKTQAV
Experimental: Specific inhibition of C5a binding activity of representative compounds of the present invention was measured using 0.03-1 nM ^125 I-C5a with 2.5-25 μg/mL of purified PMNL membrane fragments (Borregaard, N.; Heiple, J. M.; Simons, E. R.; and Clark, R. A. J. Cell. Biol. 1983, 97, 52-61.). Free and membrane-bound ligand were separated by filtration.

Compound | Ki
CC(C)C[C@H](NC(=O)[C@H](CC1CCCCC1)NC(=O)[C@H](CC1CCCCC1)NC(=O)[C@H](C)NC(=O)[C@H](CSCCN)NC(=O)[C@@H](N)Cc1ccccc1)C(=O)N[C@H](C)C(=O)N[C@@H](CCCNC(=N)N)C(=O)O [Example 348, H-Phenylalanyl-(S-2-Aminoethyl)Cysteinyl-Alanyl-{(2S)-2-Amino-3-cyclohexylpropanoyl}-{(2S)-2-Amino-3-cyclohexylpropanoyl}-Leucyl-DAlanyl-Arginyl-OH] (H-FC(Ethyl(2-NH2))A[Cha][Cha]L[dA]R-OH) | 140 nM
C[C@H](NC(=O)[C@H](CCCCN)NC(=O)[C@@H](N)Cc1ccccc1)C(=O)N[C@@H](CC1CCCCC1)C(=O)N[C@@H](CC1CCCCC1)C(=O)N[C@H](C)C(=O)N[C@H](C)C(=O)N[C@@H](CCCNC(=N)N)C(=O)O [Example 202, H-Phenylalanyl-Lysyl-Alanyl-{(2S)-2-Amino-3-cyclohexylpropanoyl}-{(2S)-2-Amino-3-cyclohexylpropanoyl}-DAlanyl-DAlanyl-Arginyl-OH] (H-FKA[Cha][Cha][dA][dA]R-OH) | 870 nM
CC(C)C[C@H](NC(=O)[C@H](C)NC(=O)[C@H](CC1CCCCC1)NC(=O)[C@H](C)NC(=O)[C@H](CCCCN)NC(=O)[C@H](Cc1ccccc1)NC(=O)OC(C)(C)C)C(=O)N[C@H](C)C(=O)N[C@@H](CCCNC(=N)N)C(=O)O [Example 404, tert-Butyloxycarbonyl-Phenylalanyl-Lysyl-Alanyl-{(2S)-2-Amino-3-cyclohexylpropanoyl}-Alanyl-Leucyl-DAlanyl-Arginyl-OH] (Boc-FKA[Cha]AL[dA]R-OH) | 130 nM
CC(C)C[C@H](NC(=O)[C@H](C)NC(=O)[C@H](CC1CCCCC1)NC(=O)[C@H](C)NC(=O)[C@H](CCCCN)NC(=O)[C@@H](N)Cc1ccccc1)C(=O)N[C@H](C)CN[C@@H](CCCNC(=N)N)C(=O)O [Example 421, H-Phenylalanyl-Lysyl-Alanyl-{(2S)-2-Amino-3-cyclohexylpropanoyl}-Alanyl-Leucyl-DAlanyl-.psi.{CH2 --NH}-Arginyl-OH] (H-FKA[Cha]AL-X2) | 3200 nM
CC(C)C[C@H](NC(=O)[C@H](CCCNC(=N)N)NC(=O)[C@H](CC1CCCCC1)NC(=O)[C@H](C)NC(=O)[C@H](CCCCN)NC(=O)[C@@H](N)Cc1ccccc1)C(=O)N[C@H](C)C(=O)N[C@@H](CCCNC(=N)N)C(=O)O [Example 432, H-Phenylalanyl-Lysyl-Alanyl-{(2S)-2-Amino-3-cyclohexylpropanoyl}-Arginyl-Leucyl-DAlanyl-Arginyl-OH] (H-FKA[Cha]RL[dA]R-OH) | 30 nM
CC(C)C[C@H](NC(=O)[C@H](C)NC(=O)[C@H](C)NC(=O)[C@H](CCCCN)NC(=O)[C@@H](N)Cc1ccccc1)C(=O)N[C@@H](C)C(=O)N[C@H](C)C(=O)N[C@@H](CCCNC(=N)N)C(=O)O [Example 295, H-Phenylalanyl-Lysyl-Alanyl-Alanyl-Leucyl-Alanyl-DAlanyl-Arginyl-OH] (H-FKAALA[dA]R-OH) | 3300 nM
CSCC[C@H](NC(=O)[C@H](CC(=O)O)NC(=O)[C@H](CCCCN)NC(=O)[C@@H](N)Cc1ccc2ccccc2c1)C(=O)N[C@@H](CCC(N)=O)C(=O)N[C@@H](CC(C)C)C(=O)NCC(=O)N[C@@H](CCCNC(=N)N)C(=O)O [Example 377, H-{3-(2'-Naphthyl)alanyl}-Lysyl-Aspartyl-Methionyl-Glutaminyl-Leucyl-Glycyl-Arginyl-OH] (H-[2Nal]KDMQLGR-OH) | 1800 nM
CC(C)C[C@H](NC(=O)[C@H](CC1CCCCC1)NC(=O)[C@@H](NC(=O)[C@H](C)NC(=O)[C@H](CCCCN)NC(=O)[C@@H](N)Cc1ccccc1)[C@@H](C)O)C(=O)N[C@H](C)C(=O)N[C@@H](CCCNC(=N)N)C(=O)O [Example 182, H-Phenylalanyl-Lysysl-Alanyl-Threonyl-{(2S)-2-Amino-3-cyclohexylpropanoyl}-Leucyl-DAlanyl-Arginyl-OH] (H-FKAT[Cha]L[dA]R-OH) | 300 nM
C[C@H](NC(=O)[C@H](CCCCN)NC(=O)[C@@H](N)Cc1ccccc1)C(=O)N[C@@H](CC1CCCCC1)C(=O)NCC(=O)N[C@H](Cc1c[nH]c2ccccc12)C(=O)N[C@H](C)C(=O)N[C@@H](CCCNC(=N)N)C(=O)O [Example 249, H-Phenylalanyl-Lysyl-Alanyl-{(2S)-2-Amino-3-cyclohexylpropanoyl}-Glycyl-DTryptophyl-DAlanyl-Arginyl-OH] (H-FKA[Cha]G[dW][dA]R-OH) | 110 nM
CC(C)C[C@H](NC(=O)[C@H](CC1CCCCC1)NC(=O)[C@H](CC1CCCCC1)NC(=O)[C@H](C)NC(=O)[C@H](CCCCN)NC(=O)[C@@H](N)Cc1ccccc1)C(=O)N[C@H](C)C(=O)N[C@@H](CCCNC(=N)N)C(=O)O [Example 2, H-Phenylalanyl-Lysyl-Alanyl-{(2S)-2-Amino-3-cyclohexylpropanoyl}-{(2S)-2-Amino-3-cyclohexylpropanoyl}-Leucyl-DAlanyl-Arginyl-OH] (H-FKA[Cha][Cha]L[dA]R-OH) | 98 nM
CC(C)C[C@H](NC(=O)[C@@H](Cc1ccccc1)NC(=O)[C@H](CC1CCCCC1)NC(=O)[C@H](C)NC(=O)[C@H](CCCCN)NC(=O)[C@@H](N)Cc1ccccc1)C(=O)N[C@H](C)C(=O)N[C@@H](CCCNC(=N)N)C(=O)O [Example 220, H-Phenylalanyl-Lysyl-Alanyl-{(2S)-2-Amino-3-cyclohexylpropanoyl}-DPhenylalanyl-Leucyl-DAlanyl-Arginyl-OH] (H-FKA[Cha][dF]L[dA]R-OH) | 220 nM
CC(C)C[C@H](NC(=O)[C@H](C)NC(=O)[C@@H](NC(=O)[C@H](C)NC(=O)[C@H](CCCCN)NC(=O)[C@@H](N)Cc1ccccc1)C(O)c1ccccc1)C(=O)N[C@H](C)C(=O)N[C@@H](CCCNC(=N)N)C(=O)O (stereo partly shown) [Example 117, H-Phenylalanyl-Lysyl-Alanyl-Phenylseryl-Alanyl-Leucyl-DAlanyl-Arginyl-OH] (H-FKA[X1]AL[dA]R-OH) | 550 nM
Ac-Histidyl-Lysyl-Aspartyl-{(2S)-2-Amino-3-cyclohexylpropanoyl}-{(2S)-2-Amino-3-cyclohexylpropanoyl}-Leucyl-Pipecolyl(±)-Arginyl-OH [Example 13] | 850 nM
CC(C)C[C@H](NC(=O)CNC(=O)[C@H](CC1CCCCC1)NC(=O)[C@H](C)NC(=O)[C@H](CCCCN)NC(=O)[C@@H](N)Cc1ccccc1)C(=O)N[C@H](C)C(=O)N[C@@H](CCCNC(=N)N)C(=O)O [Example 165, H-Phenylalanyl-Lysyl-Alanyl-{(2S)-2-Amino-3-cyclohexylpropanoyl}-Glycyl-Leucyl-DAlanyl-Arginyl-OH] (H-FKA[Cha]GL[dA]R-OH) | 42 nM
CC(C)C[C@H](NC(=O)CNC(=O)[C@H](CC1CCCCC1)NC(=O)[C@H](C)N(C)C(=O)[C@H](CCCCN)NC(=O)[C@H](Cc1ccccc1)N(C)C)C(=O)N(C)[C@H](C)C(=O)N[C@@H](CCCNC(=N)N)C(=O)O [Example 455, (N,N-di-Methyl)Phenylalanyl-Lysyl-(N-Methyl)Alanyl-{(2S)-2-Amino-3-cyclohexylpropanoyl}-Glycyl-Leucyl-(N-Methyl)DAlanyl-Arginyl-OH] (NMe2Phe-K[NMeA][Cha]GL[dNMeA]R-OH) | 17 nM
CSCC[C@H](NC(=O)[C@H](CC(=O)O)NC(=O)[C@H](CCCCN)NC(=O)[C@@H](N)Cc1ccccc1)C(=O)N[C@@H](CCCNC(=N)N)C(=O)N[C@@H](CC(C)C)C(=O)NCC(=O)N[C@@H](CCCNC(=N)N)C(=O)O [Example 424, H-Phenylalanyl-Lysyl-Aspartyl-Methionyl-Arginyl-Leucyl-Glycyl-Arginyl-OH] (H-FKDMRLGR-OH) | 480 nM
